This note sets out measurements from patent publication US7105531B2, “Tricyclic protein kinase inhibitors” (WYETH, priority 1999, dated 2006).

One series concerns HT-29 cells. The experiment in a line: Cell proliferation test procedure, HT-29 cells. Format: cell-based. To be noted: Homo sapiens, read-out: HT-29 prolif IC50. The procedure: HT-29 cells: Compound effectiveness at inhibiting cell proliferation on plastic is performed in a 96-well format by plating 5000 cells per well in appropriate medium on day one, followed by compound addition on day 2 in serial two-fold dilutions. On day five, compound is washed away and medium containing MTS reagent (Promega) is added. Relative cell number is determined by reading the absorbance at 490 nm of a dye produced by an NAD-dependent cellular enzymatic reaction.

The next series has as its target T1, p60^c-src (Src) (Homo sapiens, UniProt P12931).
T1 construct: purchased Upstate Biotechnologies
Put plainly: Src kinase test procedure (Elisa format). The series is classed as biochemical. The procedure: Inhibitors of p60^c-src (partially purified preparation purchased from Upstate Biotechnologies) tyrosine kinase activity are analyzed in an Elisa format. […] HRP-conjugated anti-phosphotyrosine is used to detect phosphorylated peptide via a color reaction. Conditions recommended by the manufacturer are employed.
The reaction mixture with the phosphorylated peptide is then transferred to a streptavidin-coated microtiter plate (provided in the kit) and allowed to bind for 20 minutes. Unbound peptide and reaction mixture is decanted and the plate is washed with PBS six times. Horseradish peroxidase-conjugated phosphotyrosine antibody supplied in the kit is incubated with the plate for one hour, then decanted. The plate is again washed with PBS six times.

Series [1] addresses T2, Rat2 fibroblasts transformed with v-Src/Hu c-Src fusion gene (Homo sapiens, UniProt P12931, cells depend on it, form not given).
T2 construct: fused on or other part: The v-Src frame of Rous sarcoma virus: everything outside the catalytic domain, namely the N-terminal unique/SH3/SH2 part; Candidates are Prague C (P00526), then Schmidt-Ruppin A (P00524)
Put plainly: Anchorage independent Src-transformed fibroblast proliferation test procedure. The series is classed as cell-based, rat. As to conditions: rat2 fibroblasts transformed with v-src/hu c-src fusion gene; read-out: Src TF prolif IC50. From the text: Anchorage Independent Src-transformed Fibroblast Proliferation Test Procedure: Rat2 fibroblasts stably transformed with a plasmid containing CMV promotor controlled v-Src/Hu c-Src fusion gene in which the catalytic domain of human c-Src is inserted in place of the v-Src catalytic domain in the v-Src gene are used for the measurement of src dependent suspension growth.

T1 sequence (P12931 whole entry, species assumed): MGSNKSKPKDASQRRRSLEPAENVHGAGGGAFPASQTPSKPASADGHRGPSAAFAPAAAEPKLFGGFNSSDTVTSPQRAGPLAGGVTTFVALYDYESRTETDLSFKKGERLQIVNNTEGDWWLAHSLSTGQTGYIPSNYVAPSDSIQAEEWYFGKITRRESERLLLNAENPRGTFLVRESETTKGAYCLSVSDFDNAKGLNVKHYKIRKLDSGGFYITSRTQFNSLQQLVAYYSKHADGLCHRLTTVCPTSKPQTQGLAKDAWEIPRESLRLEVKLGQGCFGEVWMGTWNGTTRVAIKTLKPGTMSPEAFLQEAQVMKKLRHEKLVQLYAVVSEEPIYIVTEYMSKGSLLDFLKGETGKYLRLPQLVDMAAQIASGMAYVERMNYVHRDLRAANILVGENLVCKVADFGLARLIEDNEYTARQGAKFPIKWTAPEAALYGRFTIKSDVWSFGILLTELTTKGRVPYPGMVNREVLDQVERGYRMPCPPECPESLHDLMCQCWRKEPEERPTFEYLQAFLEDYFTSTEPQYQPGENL
T2 sequence (P12931 whole entry, change not shown, the tested form may be a part): as the sequence (P12931 whole entry, species assumed) above

In turn, `COc1cc(Nc2c(C#N)cnc3cc4cc(OCCN5CCOCC5)c(OC)cc4cc23)c(Cl)cc1C` [Example 216, 4-(2-Chloro-5-methoxy-4-methylphenylamino)-7-methoxy-8-(2-morpholin-4-yl-ethoxy)benzo[g]quinoline-3-carbonitrile] displayed a melting point of 220 to 222 °C. Also, the IC50 with HT-29 cells was 9.95 µM.
Take `COc1cc(Nc2c(C#N)cnc3cc4cc(OCCN5CCN(C)CC5)c(OC)cc4cc23)c(C)cc1Cl` [Example 133, 4-(4-chloro-5-methoxy-2-methylanilino)-7-methoxy-8-[2-(4-methyl 1-piperazinyl)ethoxy]benzo[g]quinoline-3-carbonitrile]: in the series on HT-29 cells, the half-inhibitory concentration (IC50) was 8.6 µM.
In the case of `COc1cc(Nc2c(C#N)cnc3cc4cc(OCCN5CCN(C)CC5)c(OC)cc4cc23)c(Cl)cc1C` [Example 203], the IC50 against p60^c-src (Src) amounted to 0.0042 µM. Also, the GI50 in series [1] was found to be 0.071 µM.
On to `COc1cc(Nc2c(C#N)cnc3c2sc2ccc([N+](=O)[O-])cc23)c(C)cc1Cl` [Example 75], for which the “Src % Inh” value at p60^c-src (Src) (dose 10 μM) worked out at 0%.

As a reminder, the IC50 is the point on the concentration scale where inhibition reaches its midpoint. As a reminder, the melting point is the temperature, or range, at which the solid turns liquid.
